According to patent EP0548931A1, “Material for controlling pests” (SUMITOMO CHEMICAL COMPANY, LIMITED, priority 1991, dated 1993):

Columns and labels:
[1] = tested on: greenhouse whiteflies; assay: Test Example 1: yellow cloth material (Production Example 2) set beside tomato, count of adults; format: in vivo, Trialeurodes vaporariorum
Procedure: (§1) 0.4 Part of the insect growth regulator is dissolved in 40 parts of acetone and further 0.8 part of rape seed oil is added thereto. Thirty-one milliliters of the resulting solution is absorbed in a yellow cloth of 21 cm x 92 cm in size. Acetone is then vaporized to obtain a material for controlling pests containing 0.16 mg/cm² of the active ingredient. A material for controlling pests with pyriproxyfen as insect growth regulator was prepared according to Production Example 2. It was set at the same height as that of a container (80 cm x 112 cm x 45 cm) in which tomato having greenhouse whiteflies parasitized thereon had been planted. On the other hand, a yellow cloth containing no insect growth regulator was set as a control at a distance of about 8 m. On the predetermined day, the number of greenhouse whitefly adults parasitized on the tomato was counted.

[2] = tested on: sweetpotato whiteflies; assay: Test Example 2: yellow cloth material (Production Example 2), pest-controlling effect, count of adults; format: in vivo, Bemisia tabaci; settings: 0.16 mg/cm²
Procedure: as §1, with “counted. Table 1 In the same manner as in Test Example 1, the pest-controlling effect on sweetpotato whiteflies was examined.” for “counted.”

[3] = tested on: sweetpotato whitefly; assay: Test Example 4: yellow cloth with cotton seed oil solution in net cage, hatching inhibitory effect on eggs; format: in vivo, Bemisia tabaci; settings: after 48 hours, kidney bean
Procedure: Materials for controlling pests containing pyriproxyfen in amounts of 5.3 mg/cm², 2.7 mg/cm² and 0.5 mg/cm², respectively, were prepared by dissolving the corresponding amounts of pyriproxyfen in a cotton seed oil and coating every solution thus obtained onto a yellow cloth of 15 cm x 15 cm in size to allow the cloth to absorb the solution. Every cloth was set on one wall surface of a nylon net cage (30 cm x 30 cm x 30 cm). Kidney bean planted in a pot was placed at the center of the cage, and sweetpotato whitefly adults were released in the cage. After 48 hours, the hatching inhibitory effect on eggs from the adults was examined.

[4] = tested on: sweetpotato whitefly; assay: Test Example 9: yellow Kent paper (Production Example 8) in net cage, hatching inhibition; format: in vivo, Bemisia tabaci; settings: yellow Kent paper 15 cm x 15 cm, 1 g/m², Solvesso 200; eggs laid on kidney bean
Procedure: Ten parts of the insect growth regulator is dissolved in 90 parts of a mineral oil. 0.225 Gram of the resulting solution is absorbed in a square yellow Kent paper having a side of 15 cm to obtain a material for controlling pests containing 1 g/m² of the active ingredient. A material for controlling pests containing pyriproxyfen (insect growth regulator) and Solvesso 200 (mineral oil) prepared according to Production Example 8 was formed into a size of 15 cm x 15 cm. It was set on one wall surface of a nylon net cage of 30 cm x 30 cm x 30 cm in size. About 100 adults of sweetpotato whitefly were released in the cage together with kidney bean on which the adults had been parasitized. One day after release of the adults, a potted kidney bean having no adults parasitized thereon was set in the cage for oviposition. Among the eggs laid on the potted kidney bean until the next day, the number of untached eggs was counted.

[5] = tested on: sweetpotato whiteflies; assay: Test Example 11: yellow polyethylene sheet (Production Example 9), pest-controlling effect, count of adults; format: in vivo, Bemisia tabaci
Procedure: Ninety-eight parts by weight of a polyethylene resin (Sumikathene®; a registered trade mark of Sumitomo Chemical Co., Ltd.), 1 part by weight of pyriproxyfen, a juvenile hormone-like compound, and 1 part by weight of a polyethylene colored master batch for yellow coloration (SPEM 305 produced by Sumika Color Co., pigment content: 12 wt.%) are kneaded with a pressure kneader and then pelletized. The resulting pellet is extruded through an extruder equipped with a T-dies at 160° to 180°C to obtain a sheet-form material for controlling pests of 1 mm in thickness. A sheet-like material for controlling pests prepared according to Production Example 9 was formed into a size of 15 cm x 15 cm. It was set at the same height as that of a container (80 cm x 112 cm x 45 cm) in which tomato having greenhouse whiteflies parasitized thereon had been planted. On the other hand, a yellow film containing no insect growth regulator was set as a control in the same manner as in setting the above material for controlling pests. On the predetermined day, the number of greenhouse whitefly adults parasitized on the tomato was counted. In the same manner as in Test Example 10, the pest-controlling effect on sweetpotato whiteflies was examined.

[6] = tested on: Thrips palmi; assay: Test Example 12: blue polyethylene sheet (Production Example 10) in glass vessel with cucumber seedlings, count of adults; format: in vivo; settings: 28° ±1°C
From the text: The same procedure as in Production Example 9 is repeated except that a colored master batch for blue coloration (SPEM 510 produced by Sumika Color Co.; pigment content: 12 wt.%) replaces the colored master batch for yellow coloration. Thus, a sheet-form material for controlling pests is obtained.
Soil was placed on the bottom of a glass vessel of 70 cm x 35 cm x 35 cm in size. Three cucumber seedings, on which Thrips palmi had been parasitized, were planted at the central part of the glass vessel. After three days, the material for controlling pests prepared according to Production Example 10 was formed into a size of 15 cm x 15 cm and set at a height of 5 cm above the ground. On the other hand, the same test was carried out by setting a blue film containing no insect growth regulator, a control, in the same manner as in setting the above material for controlling pests.
On the predetermined day, the number of Thrips palmi adults parasitized on the cucumbers was counted. The tests were carried out in a room kept at 28° ±1°C.

Structure (SMILES): CC(COc1ccc(Oc2ccccc2)cc1)Oc1ccccn1 (stereo not drawn) [pyriproxyfen, 4-phenoxyphenyl 2-(2-pyridyloxy)propyl ether]
- number of greenhouse whitefly adults parasitized on the tomato (mean value per cup) ([1]; 0 days elapsed after setting, 0.16 mg/cm² active ingredient, rape seed oil): 102
- number of greenhouse whitefly adults parasitized on the tomato (mean value per cup) ([1]; 7 days elapsed after setting, 0.16 mg/cm²): 82
- number of greenhouse whitefly adults parasitized on the tomato (mean value per cup) ([1]; 14 days elapsed after setting, 0.16 mg/cm²): 82
- number of greenhouse whitefly adults parasitized on the tomato (mean value per cup) ([1]; 18 days elapsed after setting, 0.16 mg/cm²): 53
- number of greenhouse whitefly adults parasitized on the tomato (mean value per cup) ([1]; 28 days elapsed after setting, 0.16 mg/cm²): 18
- number of greenhouse whitefly adults parasitized on the tomato (mean value per cup) ([1]; 35 days elapsed after setting, 0.16 mg/cm²): 12
- number of greenhouse whitefly adults parasitized on the tomato (mean value per cup) ([1]; 42 days elapsed after setting, 0.16 mg/cm²): 5
- number of sweetpotato whitefly adults (pest-controlling effect) ([2]; 0 days elapsed after setting): 53
- number of sweetpotato whitefly adults (pest-controlling effect) ([2]; 7 days elapsed after setting): 40
- number of sweetpotato whitefly adults (pest-controlling effect) ([2]; 14 days elapsed after setting): 35
- number of sweetpotato whitefly adults (pest-controlling effect) ([2]; 18 days elapsed after setting): 20
- number of sweetpotato whitefly adults (pest-controlling effect) ([2]; 29 days elapsed after setting): 10
- number of sweetpotato whitefly adults (pest-controlling effect) ([2]; 35 days elapsed after setting): 1
- Hatching inhibitory rate (%) ([3]; Pyriproxyfen 0.5 mg/cm² on yellow cloth): 83.7%
- Hatching inhibitory rate (%) ([3]; Pyriproxyfen 2.7 mg/cm² on yellow cloth): 98.2%
- Hatching inhibitory rate (%) ([3]; Pyriproxyfen 5.3 mg/cm² on yellow cloth): 94.6%
- Hatching inhibitory rate (%) [4]: 98.2%
- number of sweetpotato whitefly adults (pest-controlling effect) ([5]; 0 days elapsed after setting): 70
- number of sweetpotato whitefly adults (pest-controlling effect) ([5]; 7 days elapsed after setting): 30
- number of sweetpotato whitefly adults (pest-controlling effect) ([5]; 14 days elapsed after setting): 20
- number of sweetpotato whitefly adults (pest-controlling effect) ([5]; 18 days elapsed after setting): 18
- number of sweetpotato whitefly adults (pest-controlling effect) ([5]; 29 days elapsed after setting): 8
- number of sweetpotato whitefly adults (pest-controlling effect) ([5]; 35 days elapsed after setting): 5
- number of Thrips palmi adults parasitized on the cucumbers ([6]; 0 days elapsed after setting, blue polyethylene sheet 15 cm x 15 cm): 3
- number of Thrips palmi adults parasitized on the cucumbers ([6]; 7 days elapsed after setting, blue polyethylene sheet): 4
- number of Thrips palmi adults parasitized on the cucumbers ([6]; 14 days elapsed after setting, blue polyethylene sheet): 3
- number of Thrips palmi adults parasitized on the cucumbers ([6]; 21 days elapsed after setting, blue polyethylene sheet): 2
